Laboratory results published in patent US20220080027A1, “METHODS OF TREATING NEURODEGENERATIVE DISEASES BY TARGETING THE PURINERGIC AND/OR ADENOSINE RECEPTORS” (Board of Regents, The University of Texas System, priority 2020, published 2022).
“Also recorded” adds a separate entry of the source.

Experiments:
Panx-1 channels [1] = target: T1, Panx-1 channels (Homo sapiens, UniProt Q96RD7); test: Ethidium (Etd) dye uptake, PBMCs from HIV-infected individuals; assay type: cell-based; settings: for effect on spontaneous Panx-1 channel opening (Etd uptake): Prob 500 μM, 10Panx peptide 200 μM; for effect on pannexin-1 channel opening and Etd uptake: FIG. 1F legend: PROB 50 μM, CBX 50 μM, PEP 300 μM, n=60
T1 construct: PBMCs isolated from uninfected individuals maintain the pannexin-1 channels in a closed stage; endogenous in cells; host or cells: freshly isolated human PBMCs (uninfected or HIV-infected donors)
T1 sequence (Q96RD7 whole entry): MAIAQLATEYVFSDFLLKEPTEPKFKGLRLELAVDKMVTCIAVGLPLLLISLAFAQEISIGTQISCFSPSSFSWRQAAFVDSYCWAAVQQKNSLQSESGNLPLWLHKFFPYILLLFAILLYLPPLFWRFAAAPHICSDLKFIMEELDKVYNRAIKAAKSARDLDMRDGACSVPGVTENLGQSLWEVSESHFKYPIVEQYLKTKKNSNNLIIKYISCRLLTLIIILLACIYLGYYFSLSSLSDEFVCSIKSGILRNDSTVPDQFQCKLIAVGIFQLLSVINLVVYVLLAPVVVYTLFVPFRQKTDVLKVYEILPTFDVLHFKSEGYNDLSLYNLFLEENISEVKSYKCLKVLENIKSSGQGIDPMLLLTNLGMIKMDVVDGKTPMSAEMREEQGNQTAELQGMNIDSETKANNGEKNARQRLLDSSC
Method: (§1) Dye uptake and time-lapse microscopy. To characterize the functional state of Panx-1 channels, dye-uptake experiments using ethidium (Etd) bromide were performed (Cat #15585011, ThermoFisher, Grand Island, N.Y., USA). Cells were washed twice in HBSS and then exposed to Locke's solution (containing 154 mM NaCl, 5.4 mM KCl, 2.3 mM CaCl2, 5 mM HEPES, and pH 7.4) with 5 μM Etd and time-lapse microscopy were then performed. Phase-contrast and fluorescence microscopy with time-lapse imaging were used to record cell appearance and fluorescence-intensity changes in each condition. Fluorescence was recorded every 30 s. The NIH ImageJ program was used for off-line image analysis and fluorescence quantification. For data representation and calculation of Etd uptake slopes, the average of two independent background fluorescence (FB) (expressed as A.U.) was subtracted from mean fluorescent intensity (F1). Results of this calculation (F1-FB), for at least 20 cells, were averaged and plotted against time (expressed in minutes). Slopes were calculated using Microsoft Excel software and expressed as A.U./min. The microscope and camera settings remained the same in all experiments. Dead cells or cells with a damaged plasma membrane were identified during the time-lapse microscopy as a result of their nonspecific Etd uptake rate, determined by lack of time dependency and stability in dye uptake (not inhibited by channel blockers), and were not quantified.
(§2) However, the chronic effects of HIV infection on Panx-1 channel activity were unknown. To determine the status of the channel, Panx-1 channel opening was determined by Ethidium (Etd, 5 μM) uptake rate Ethidium only crosses the plasma membrane in healthy cells by passing through specific large channels, such as Connexin (Cx) and Pannexin (Panx) hemichannels, and its rate of intracellular accumulation is reflective of channel opening.
To assess the opening of the Panx-1 channels on PBMCs isolated from HIV-infected individuals, the inventors used a similar approach as described above. The inventors analyzed Panx-1 channel opening using dye uptake rate on PBMCs isolated from 60 different HIV-infected individuals, mostly with low to undetectable replication, as described in Table 1.

[2] = system: PBMCs obtained from uninfected individuals; test: ATP release by PBMCs from uninfected individuals (ATPlite); assay type: cell-based, human; settings: for effect on release of ATP in response to HIV-gp120: PBMCs from uninfected individuals, Prob 500 μM, 10Panx1 peptide 300 μM, TAK779 5 μM, AMD3100 5 μM; for induction of ATP secretion: treatment of uninfected PBMCs, 30 min
Method: (§3) ATP Assay. […] Luminescence was measured using a PerkinElmer EnVision Multilabel Plate Reader. […] To assure rigor in these determinations, some samples were submitted for blinded analysis of ATP levels using mass spectrometry (University of North Dakota, N. Dak.).
(§4) Uninfected and HIV-infected PBMCs were isolated as described above.

[3] = system: PBMCs obtained from uninfected individuals; test: PGE2 release by PBMCs from uninfected individuals (ELISA); assay type: cell-based, human; settings: for effect on release of PGE2 in response to HIV-gp120: PBMCs from uninfected individuals, Prob 500 μM, 10Panx1 peptide 300 μM, TAK779 5 μM, AMD3100 5 μM; for induction of PGE2 secretion: treatment of uninfected PBMCs, 30 min
Method: (§5) Analysis of IL-1β and PGE2 release. Plasma/serum was collected, divided into aliquots, and stored at −80° C. There were no freeze-thaw cycles before analysis. Plasma/serum was analyzed for TNF-α, IL-1β (Quantikine ELISA kit; R and D Systems, Minneapolis Minn., USA) and PGE2 (Abcam, Cambridge, Mass., USA) by enzyme-linked immunosorbent assay (ELISA) according to the manufacturer's instructions.
as §4

[4] = system: PBMCs obtained from HIV-infected individuals; test: Spontaneous ATP release by PBMCs from HIV-infected individuals; assay type: cell-based, human; settings: no stimulation, Prob 500 μM, 10Panx1 peptide 300 μM
Method: as §3, §4

[5] = system: PBMCs obtained from HIV-infected individuals; test: Spontaneous PGE2 release by PBMCs from HIV-infected individuals; assay type: cell-based, human; settings: no stimulation, Prob 500 μM, 10Panx1 peptide 300 μM
Method: as §5, §4

Panx-1 channels [6] = target: T1, Panx-1 channels; test: Ethidium (Etd) dye uptake, PBMCs from uninfected individuals; assay type: cell-based; settings: for induction of Panx-1 channel opening: treatment of uninfected PBMCs, 30 min, gp120 1 μg/ml, TNF-α 10 ng/ml, IL-1β 10 U/ml, IFN-γ 10 ng/ml, LPS 1 μg/ml; for effect on basal Etd uptake: PBMCs from uninfected individuals, Prob 500 μM, CBX 500 μM, 10Panx peptide 200 μM, FIG. 1C
Method: as §1, §2

[7] = system: BBB model (primary human BMVEC and primary human astrocytes); test: BBB disruption after transmigration of HIVADA infected PBMCs; assay type: cell-based
Method: (§6) Blood-brain barrier (BBB) model: This in vitro BBB model consists of primary human BMVEC and primary human astrocytes in co-culture on opposite sides of a gelatin-coated, 3 μm pore-size tissue culture insert (Falcon, B D, Franklin Lakes, N.J.) as described by the inventors. Co-cultures were maintained for three days to enable contact between astrocyte endfeet with BMVEC on the opposite side of the model as described. After this, the BBB model was treated with different ATP concentrations (Cat #A1852, Sigma Chemical Co., St. Louis, Mo., USA), and BBB permeability was measured using BSA conjugated to Evans Blue, as described by the inventors.
(§7) PBMCs infected with the HIVADA were added to the top chamber of BBB co-cultures without CCL2 in the bottom chamber (HIV).

[8] = system: HIVADA infected PBMCs (lymphocytes and monocytes); test: Transmigration of HIVADA infected PBMCs across the in vitro BBB model in response to CCL2; assay type: cell-based, human; settings: added to the co-culture; oATP 100 μM, apyrase 100 units/ml; data not shown
Method: as §6, §7

HIV = HIV replication and viral entry; assay type: cell-based
purinergic receptors = settings: in vivo mouse model [116]; cited from earlier work
[9] = target: CD4 on PBMCs from uninfected individuals (human) (UniProt P01730); test: cell-based or functional assay
[10] = added to the co-culture, oATP 100 μM, apyrase 100 units/ml, data not shown

Molecule | effect on spontaneous Panx-1 channel opening (Etd uptake) (Panx-1 channels [1]) | effect on release of ATP in response to HIV-gp120 [2] | effect on release of PGE2 in response to HIV-gp120 [3] | effect on spontaneous release of ATP [4] | effect on spontaneous release of PGE2 [5] | effect on basal Etd uptake (Panx-1 channels [6]) | further results
Cc1ccc(-c2ccc3c(c2)C=C(C(=O)Nc2ccc(C[N+](C)(C)C4CCOCC4)cc2)CCC3)cc1.[Cl-] [TAK779] | did not prevent | prevented the release | prevented the release | no significant effects | no significant effects |  | 
IL-1p: cytokine used to treat uninfected PBMCs |  |  |  |  |  |  | induction of Panx-1 channel opening (Panx-1 channels [6]): does not induce; induction of ATP secretion [2]: does not induce; induction of PGE2 secretion [3]: does not induce
CC1(C)[C@@H](OC(=O)CCC(=O)O)CC[C@]2(C)[C@H]3C(=O)C=C4[C@@H]5C[C@@](C)(C(=O)O)CC[C@]5(C)CC[C@@]4(C)[C@]3(C)CC[C@@H]12 [carbenoxolone] |  |  |  |  |  | did not affect | effect on pannexin-1 channel opening and Etd uptake (Panx-1 channels [1]): able to prevent the opening of the pannexin-1 channel and Etd uptake
CCCN(CCC)S(=O)(=O)c1ccc(C(=O)O)cc1 [probenecid] |  | prevented the release | prevented the release | prevented the release | prevented the release | did not affect | effect on pannexin-1 channel opening and Etd uptake (Panx-1 channels [1]): able to prevent the opening of the pannexin-1 channel and Etd uptake; effect on BBB disruption ([7]; HIVADA infected PBMCs preincubated with blocker, CCL2): reduced BBB disruption
[La] [lanthanum] | did not affect | did not alter | did not alter | did not alter | did not alter | did not have any effect | effect on release of ATP in response to HIV-gp120 ([2]; listed as Lanthanum): did not affect; effect on release of PGE2 in response to HIV-gp120 ([3]; listed as Lanthanum): did not affect; effect on spontaneous release of ATP ([4]; listed as Lanthanum): did not affect; effect on spontaneous release of PGE2 ([5]; listed as Lanthanum): did not affect
TNF-α |  |  |  |  |  |  | induction of Panx-1 channel opening (Panx-1 channels [6]): does not induce; induction of ATP secretion [2]: does not induce; induction of PGE2 secretion [3]: does not induce
Nc1ncnc2c1ncn2[C@@H](C=O)O[C@@H](C=O)COP(=O)(O)OP(=O)(O)OP(=O)(O)O [oATP] |  |  |  |  |  |  | effect on transmigration [8]: blocked; effect on BBB disruption [7, 10]: blocked; inhibition of HIV replication and viral entry (HIV): potent inhibitor; onset of diabetes and inflammatory bowel disease (purinergic receptors): can prevent the onset of diabetes and inflammatory bowel disease; systemic blocking of purinergic receptors (purinergic receptors): good systemic blocker of purinergic receptors
recombinant protein HIV-gp120 (HIV-Bal) (ligand) |  |  |  |  |  |  | release of ATP after 30 min (uninfected PBMCs, gp120 1 µg/ml) [9]: 5.9 µM; release of PGE2 after 30 min (uninfected PBMCs, gp120 1 µg/ml) [9]: 56.8 pg/mL
c1cc(CN2CCCNCCNCCCNCC2)ccc1CN1CCCNCCNCCCNCC1 [AMD3100] | did not prevent | prevented the release | prevented the release | no significant effects | no significant effects |  | 
apyrase |  |  |  |  |  |  | effect on transmigration [8]: blocked; effect on BBB disruption [7, 10]: blocked
IFN-γ: cytokine used to treat uninfected PBMCs (protein, UniProt P01579 24-161, looked up) Interferon gamma: QDPYVKEAENLKKYFNAGHSDVADNGTLFLGILKNWKEESDRKIMQSQIVSFYFKLFKNFKDDQSIQKSVETIKEDMNVKFFNSNKKKRDDFEKLTNYSVTDLNVQRKAIHELIQVMAELSPAAKTGKRKRSQMLFRG |  |  |  |  |  |  | induction of Panx-1 channel opening (Panx-1 channels [6]): does not induce; induction of ATP secretion [2]: does not induce; induction of PGE2 secretion [3]: does not induce
Cx43^E2: a peptide that specifically blocks Cx43 hemichannels (peptide) VH: EVQLQQPGAELVKPGASVKLSCKASGYTFTSYYMYWVKQRPGQGLEWIGGINPSNGGTNFNEKFKNKATLTVDKSSSTAYMQLSSLTSEDSAVYYCTREGNPYYTMNYWGQGTSVTVSS VL: DIVMTQSPSSLSVSAGEKVTMSCKSSQSLLNSGNQKTYLAWYQQKPGQPPKLLIYGASTRESGVPDRFTGSGSGTDFTLTISSVQAEDLAVYYCQNDHSYPFTFGSGTKLEIK | did not affect | did not alter; also recorded: did not affect | did not alter; also recorded: did not affect | did not alter; also recorded: did not affect | did not alter; also recorded: did not affect | did not have any effect | 
